From patent publication US10485881B2, “Nanoparticle drug conjugates” (Memorial Sloan Kettering Cancer Center, priority 2014, dated 2019) come the findings set out here.

Data set [1] has as its target EGFR (phospho-Tyr168) in H1650 cells (Homo sapiens, UniProt P00533, DEL746-750). As to the kind of experiment: PhosphoEGFR assay with H1650 cells (western blot). The following applies: 1 and 10 μM, compared with gefitinib. In general terms: Immunoblotting shows a protein as a band on a membrane.
Procedure: Serum starved cells were incubated with each compound over a period of 18 hours, then subject to EGF stimulation.
PhosphoEGFR Assay with H1650 Cells:
H1650 cells were seeded (1.5 million cells) in 6-well plates with 2 ml of 10% FBS DEM medium and grown for 24 hrs. Cells were washed with 1 mL of serum free DEM medium, then incubated with gefitinib or NDCs at indicated concentrations overnight (18 hrs). Cells were then treated with 50 ng/mL EGF for 5 minutes, then washed with 1 mL of PBS. […] 1 mL of 10% FBS DEM medium was added to wells, and cells were transferred to 15 mL conical tubes containing 10 mL of 10% FBS DEM medium. Cells were spun down at 3000 rpm for 5 minutes at 4° C. The cell pellets were washed with 1 mL cold PBS, transferred to 1.5 mL tubes, and spun down. PBS was decanted and 70 μL of RIPA (containing protease and phosphatase inhibitors) was added to the pellet, titurated, and incubated for 10 minutes on ice. Tubes were spun at maximum speed for 10 minutes at 4° C. Lysate was transferred to new 1.5 ml tubes and stored at −80° C. Protein concentrations were determined by the Bradford assay. Western blots were run on a Life Technologies apparatus, using Novex 8% tris-glycine gels (1.5 mm×15 wells), tris-glycine SDS running buffer, NuPAGE transfer buffer, 0.1% Tween-20 in 1×TBS washing buffer, and 5% milk in the washing buffer as the blocking buffer. […]
The target in data set [2] is T1, trypsin (Bos taurus, UniProt P00760).
T1 construct: purchased Sigma-Aldrich
T1 sequence (P00760 24-246): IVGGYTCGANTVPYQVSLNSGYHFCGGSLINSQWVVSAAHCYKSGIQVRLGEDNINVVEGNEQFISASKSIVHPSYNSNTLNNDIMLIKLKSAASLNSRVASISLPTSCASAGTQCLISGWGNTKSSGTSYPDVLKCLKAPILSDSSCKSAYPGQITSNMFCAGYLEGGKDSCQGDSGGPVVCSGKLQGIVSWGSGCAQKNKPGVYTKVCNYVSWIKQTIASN
As to the kind of experiment: Drug release assay with trypsin. The following applies: for half-life at 25 μM: bovine, pH 7.2, free linker-drug constructs, HPLC at 348 nm, 37° C., phosphate buffer pH 7.2, read-out: Trypsin t1/2 (time when 50% of the drug is released from linker); for Time to complete hydrolysis / complete release of drug with trypsin: free linker-drug constructs, monitored by HPLC or LCMS. The data set is classed as biochemical, bovine. On the procedure:
Drug Release Assays with Trypsin:
For analysis, 70 μL portions were removed and quenched with acid (HCl) at specified time points (e.g., 5, 15, 30, 60, 120 minutes or longer) then run on HPLC/LCMS. NDCs were stored in water at 4° C. Trypsin stocks were prepared as follows: 1 mg of trypsin was dissolved in 1 mL water, aliquoted, then immediately flash frozen and stored at −80° C. for up to four weeks. Enzyme activity was tested prior to drug release assay using the substrate Z-Arg-Arg-para-nitro-aniline. The % Free Drug (FIGS. 3 and S3) is the quantity of free drug divided by the initial quantity of drug loaded for the linker-drug construct or NDC. The quantity of free drug is determined by area of the HPLC peak corresponding to the released drug at 348 nm. The quantity of drug loaded is the area of the HPLC peak, at 348 nm, for the linker-drug construct or NDC prior to enzyme treatment. As the C'dot-(Cy5)-PEG-mal has background absorbance at 348 nm, a background subtraction for the NDC is necessary. All buffers and solutions were prepared using ultra-pure water (18 Me-cm resistivity).

For data set [3], the target named is cathepsin B (Homo sapiens, UniProt P07858). The experiment in a line: Drug release assay with cathepsin B. The following applies: free linker-drug constructs; for half-life at 25 μM: HPLC at 348 nm, sodium acetate buffer pH 5.0, NH = no hydrolysis, read-out: Cathepsin B t1/2 (time when 50% of the drug is released from linker); for Hydrolysis / drug release in the presence of cathepsin B: monitored by HPLC or LCMS. The data set is classed as biochemical. On the procedure: Drug Release Assays with Cathepsin B:
For analysis, 70 μL portions were removed and quenched with acid (HCl) at specified time points (e.g., 5, 15, 30, 60, 120 minutes or longer) then run on HPLC/LCMS. NDCs were stored in water at 4° C. […] Enzyme activity was tested prior to drug release assay using the substrate Z-Arg-Arg-para-nitro-aniline. The % Free Drug (FIGS. 4A, 4B, 6A and 6B) is the quantity of free drug divided by the initial quantity of drug loaded for the linker-drug construct or NDC, as described in the previous paragraph. All buffers and solutions were prepared using ultra-pure water (18 MΩ-cm resistivity).

Entries after “also recorded” stand apart in the source; their conditions may differ. Where two headings read alike, the source gives them in different places.

Consider “Amino-dPEG2-aminopropyl-dMG [dPEG2APdMG 2]”, for which the “Inhibition of phospho-Tyr168 in EGFR” value in data set [1] is “reduced activity”.

Regarding `COc1cc2ncnc(Nc3ccc(F)c(Cl)c3)c2cc1OCCCNC(=O)OCc1ccc(NC(=O)[C@H](CCCCN)NC(=O)[C@H](Cc2ccccc2)NC(=O)CCOCCOCCOCCOCCOCCOCCOCCOCCS)cc1` [Phe-Lys-PABC-APdMG (5), HS-dPEG8-Phe-Lys-PABC-aminopropyl-dMG], in data set [2], the half-life at 25 μM is less than 1 min and the “Time to complete hydrolysis / complete release of drug with trypsin” value was 10 min. Also, the half-life at 25 μM in data set [3] (cathepsin B (isolated enzyme)) was less than 1 min.

Consider `COc1cc2ncnc(Nc3ccc(F)c(Cl)c3)c2cc1OCCCNC(=O)CCOCCOCCNC(=O)[C@H](CCCNC(=N)N)NC(=O)[C@H](Cc1ccccc1)NC(=O)CCOCCOCCNC(=O)CCOCCOCCNC(=O)CCOCCOCCNC(=O)CS` [Phe-Arg-dPEG2APdMG (4), Mercaptoacetamido-(dPEG2)3-Phe-Arg-dPEG2APdMG], for which, in data set [2], the half-life at 25 μM was not above 2 min and the “Time to complete hydrolysis / complete release of drug with trypsin” value was 10 min. Moreover, in data set [3], the half-life at 25 μM came to 110 min and the “Hydrolysis / drug release in the presence of cathepsin B” value was “completely hydrolyzed”.

For the molecule `COc1cc2ncnc(Nc3ccc(F)c(Cl)c3)c2cc1OCCCNC(=O)[C@H](CCCNC(=N)N)NC(=O)[C@H](Cc1ccccc1)NC(=O)CCOCCOCCNC(=O)CCOCCOCCNC(=O)CCOCCOCCNC(=O)CS` [Phe-Arg-APdMG (3), Mercaptoacetamido-(dPEG2)3-Phe-Arg-APdMG], in data set [2], the half-life at 25 μM came to 9 min and the “Time to complete hydrolysis / complete release of drug with trypsin” value is reported as not above 60 min. The “Hydrolysis / drug release in the presence of cathepsin B” value in data set [3] is listed as “no hydrolysis was observed; also recorded: no drug release was observed”.
